Key:
[1] = target: T1, Aurora kinase B (Homo sapiens, UniProt Q96GD4); test: Inhibition of Aurora B
[2] = target: T2, Aurora kinase A (Homo sapiens, UniProt O14965); test: Inhibition of Aurora A
T2 sequence (O14965 whole entry): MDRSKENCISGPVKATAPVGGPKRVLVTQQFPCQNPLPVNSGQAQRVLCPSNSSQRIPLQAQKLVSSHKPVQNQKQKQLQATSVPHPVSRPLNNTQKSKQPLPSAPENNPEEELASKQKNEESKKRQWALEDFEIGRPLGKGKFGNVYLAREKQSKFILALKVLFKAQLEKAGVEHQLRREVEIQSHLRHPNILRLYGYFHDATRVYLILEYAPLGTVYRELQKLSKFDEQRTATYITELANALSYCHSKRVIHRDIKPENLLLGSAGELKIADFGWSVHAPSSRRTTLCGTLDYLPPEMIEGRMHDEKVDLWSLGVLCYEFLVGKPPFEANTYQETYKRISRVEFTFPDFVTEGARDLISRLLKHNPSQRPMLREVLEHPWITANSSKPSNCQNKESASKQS

[3] = target: T3, Vascular endothelial growth factor receptor 2 (Homo sapiens, UniProt P35968); test: Inhibition of KDR
T3 sequence (P35968 whole entry): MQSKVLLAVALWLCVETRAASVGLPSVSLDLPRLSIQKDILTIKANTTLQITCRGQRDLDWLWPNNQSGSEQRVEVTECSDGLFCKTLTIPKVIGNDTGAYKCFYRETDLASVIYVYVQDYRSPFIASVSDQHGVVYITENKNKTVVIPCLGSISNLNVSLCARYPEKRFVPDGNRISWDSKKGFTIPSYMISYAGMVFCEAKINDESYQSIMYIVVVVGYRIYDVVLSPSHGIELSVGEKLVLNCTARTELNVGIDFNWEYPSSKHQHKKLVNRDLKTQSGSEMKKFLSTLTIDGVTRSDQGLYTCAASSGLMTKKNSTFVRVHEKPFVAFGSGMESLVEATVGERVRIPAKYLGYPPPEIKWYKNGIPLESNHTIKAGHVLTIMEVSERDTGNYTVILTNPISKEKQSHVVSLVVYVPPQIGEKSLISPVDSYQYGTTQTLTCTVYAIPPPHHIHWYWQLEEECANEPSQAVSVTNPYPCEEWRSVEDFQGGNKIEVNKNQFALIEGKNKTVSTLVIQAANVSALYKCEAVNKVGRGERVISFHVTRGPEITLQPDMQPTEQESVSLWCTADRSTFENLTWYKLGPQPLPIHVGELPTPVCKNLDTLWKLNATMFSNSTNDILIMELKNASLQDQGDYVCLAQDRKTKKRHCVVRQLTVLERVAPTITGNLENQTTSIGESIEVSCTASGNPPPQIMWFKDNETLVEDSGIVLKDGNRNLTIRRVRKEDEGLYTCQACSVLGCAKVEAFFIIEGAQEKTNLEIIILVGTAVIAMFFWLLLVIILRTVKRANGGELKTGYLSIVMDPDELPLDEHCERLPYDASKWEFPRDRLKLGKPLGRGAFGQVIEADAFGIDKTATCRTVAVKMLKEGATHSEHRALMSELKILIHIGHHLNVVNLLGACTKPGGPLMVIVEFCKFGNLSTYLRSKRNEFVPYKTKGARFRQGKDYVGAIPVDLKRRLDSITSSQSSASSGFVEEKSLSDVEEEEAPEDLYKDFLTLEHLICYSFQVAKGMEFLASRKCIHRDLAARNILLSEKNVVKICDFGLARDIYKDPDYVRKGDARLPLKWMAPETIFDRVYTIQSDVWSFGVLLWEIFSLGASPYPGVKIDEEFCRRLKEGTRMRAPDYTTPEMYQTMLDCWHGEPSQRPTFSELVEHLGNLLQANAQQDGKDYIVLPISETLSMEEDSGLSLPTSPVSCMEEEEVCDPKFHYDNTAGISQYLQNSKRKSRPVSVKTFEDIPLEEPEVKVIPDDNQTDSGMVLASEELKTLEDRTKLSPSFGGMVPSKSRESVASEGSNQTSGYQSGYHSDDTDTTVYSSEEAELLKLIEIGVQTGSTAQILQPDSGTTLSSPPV

[4] = target: Tyrosine-protein kinase Lck (Homo sapiens, UniProt P06239); test: Inhibition of LCK
Chain of Tyrosine-protein kinase Lck (P06239 whole entry): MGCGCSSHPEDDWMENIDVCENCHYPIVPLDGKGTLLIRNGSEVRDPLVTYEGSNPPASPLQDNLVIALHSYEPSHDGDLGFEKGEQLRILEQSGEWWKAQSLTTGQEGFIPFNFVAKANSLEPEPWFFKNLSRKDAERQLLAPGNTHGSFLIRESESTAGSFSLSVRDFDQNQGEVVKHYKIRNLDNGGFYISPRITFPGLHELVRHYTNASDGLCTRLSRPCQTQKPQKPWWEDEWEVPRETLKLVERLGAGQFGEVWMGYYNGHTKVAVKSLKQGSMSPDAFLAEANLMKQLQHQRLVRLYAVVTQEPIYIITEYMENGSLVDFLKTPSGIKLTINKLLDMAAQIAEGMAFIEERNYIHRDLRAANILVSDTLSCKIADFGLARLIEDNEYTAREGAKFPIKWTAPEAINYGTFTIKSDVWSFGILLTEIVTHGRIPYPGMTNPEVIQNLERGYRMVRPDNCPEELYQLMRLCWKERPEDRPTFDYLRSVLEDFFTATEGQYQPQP

[5] = target: T3, Vascular endothelial growth factor receptor 2; test: Inhibition of KDR at 1 uM relative to control; values are per cent of control
[6] = target: T4, Angiopoietin-1 receptor (Homo sapiens, UniProt Q02763); test: Inhibition of Tie2 at 1 uM relative to control; values are per cent of control
T4 sequence (Q02763 whole entry): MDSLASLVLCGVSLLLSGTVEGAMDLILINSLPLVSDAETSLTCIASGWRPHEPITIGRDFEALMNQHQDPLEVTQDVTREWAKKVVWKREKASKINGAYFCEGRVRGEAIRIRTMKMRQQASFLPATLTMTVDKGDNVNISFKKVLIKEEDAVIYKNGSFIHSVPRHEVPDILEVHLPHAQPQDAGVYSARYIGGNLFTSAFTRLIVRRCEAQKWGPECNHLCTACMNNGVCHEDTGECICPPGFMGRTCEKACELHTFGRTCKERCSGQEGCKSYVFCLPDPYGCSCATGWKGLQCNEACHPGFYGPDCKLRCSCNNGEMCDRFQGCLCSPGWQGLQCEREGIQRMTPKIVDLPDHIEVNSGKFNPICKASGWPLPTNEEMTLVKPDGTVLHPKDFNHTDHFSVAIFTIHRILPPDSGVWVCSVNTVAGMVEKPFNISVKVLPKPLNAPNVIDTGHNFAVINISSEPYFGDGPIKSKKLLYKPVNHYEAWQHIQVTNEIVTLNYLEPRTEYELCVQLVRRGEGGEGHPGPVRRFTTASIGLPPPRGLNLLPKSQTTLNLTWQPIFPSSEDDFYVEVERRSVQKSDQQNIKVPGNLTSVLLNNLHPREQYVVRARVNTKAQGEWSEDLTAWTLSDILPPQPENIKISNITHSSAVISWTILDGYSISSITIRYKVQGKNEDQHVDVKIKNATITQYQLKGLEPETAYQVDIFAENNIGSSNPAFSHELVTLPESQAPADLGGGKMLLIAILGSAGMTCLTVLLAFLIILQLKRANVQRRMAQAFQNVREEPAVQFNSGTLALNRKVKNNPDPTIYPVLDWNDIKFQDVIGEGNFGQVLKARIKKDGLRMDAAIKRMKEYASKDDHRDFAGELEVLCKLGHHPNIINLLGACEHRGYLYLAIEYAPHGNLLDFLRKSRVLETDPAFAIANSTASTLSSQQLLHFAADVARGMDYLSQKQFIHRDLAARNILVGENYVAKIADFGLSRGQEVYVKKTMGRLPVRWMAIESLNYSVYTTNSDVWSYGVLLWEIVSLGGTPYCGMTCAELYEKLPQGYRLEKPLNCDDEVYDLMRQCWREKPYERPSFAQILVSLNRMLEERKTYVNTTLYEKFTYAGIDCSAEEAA

[7] = target: T5, Aurora kinase A (Homo sapiens) (UniProt O14965); test: Inhibition of Aurora A at 1 uM relative to control; values are per cent of control
T5 sequence (whole entry): T2 sequence (O14965 whole entry)

[8] = target: T1, Aurora kinase B; test: Inhibition of Aurora B at 1 uM relative to control; values are per cent of control
[9] = target: T4, Angiopoietin-1 receptor; test: Inhibition of Tie2
[10] = Selectivity ratio of IC50 for Aurora B to IC50 for Tie2
[11] = Selectivity ratio of IC50 for Aurora A to IC50 for Tie2
[12] = Selectivity ratio of IC50 for KDR to IC50 for Tie2
[13] = Selectivity ratio of IC50 for LCK to IC50 for Tie2

T1 sequence (Q96GD4 whole entry): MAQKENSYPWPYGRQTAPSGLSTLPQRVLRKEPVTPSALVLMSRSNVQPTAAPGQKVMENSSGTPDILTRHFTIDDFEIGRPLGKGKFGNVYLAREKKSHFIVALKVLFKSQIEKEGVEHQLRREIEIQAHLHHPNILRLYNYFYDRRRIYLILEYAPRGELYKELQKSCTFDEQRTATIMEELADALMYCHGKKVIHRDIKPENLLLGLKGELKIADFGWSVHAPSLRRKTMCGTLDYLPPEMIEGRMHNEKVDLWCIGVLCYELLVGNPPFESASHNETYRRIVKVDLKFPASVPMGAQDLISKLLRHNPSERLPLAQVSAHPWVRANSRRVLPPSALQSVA

CNc1nccc(-c2cccnc2Oc2c(C)cc(Nc3nc4ccccc4[nH]3)c3ccccc23)n1
IC50 [1]: 77 nM | IC50 [2]: 29 nM | IC50 [3]: 10000 nM | IC50 [4]: 405 nM | residual activity [5]: 91% | residual activity [6]: 0% | residual activity [7]: 3% | residual activity [8]: 7%

CCN1CCC(CNc2nccc(-c3cccnc3Oc3ccc(Nc4nc5ccccc5[nH]4)c4ccccc34)n2)CC1
IC50 [1]: 100 nM | IC50 [2]: 332 nM | IC50 [3]: 1750 nM | IC50 [4]: 387 nM | IC50 [9]: 1 nM | Ratio IC50 [10]: 100 | Ratio IC50 [11]: 332 | Ratio IC50 [12]: 1750 | Ratio IC50 [13]: 387 | residual activity [5]: 64% | residual activity [6]: 0% | residual activity [7]: 25% | residual activity [8]: 9%

CNc1nccc(-c2cccnc2Oc2ccc(Nc3nc4ccccc4o3)c3ccccc23)n1
IC50 [1]: 134 nM | IC50 [2]: 141 nM | IC50 [4]: 25 nM | Ratio IC50 [10]: 3 | Ratio IC50 [11]: 9 | Ratio IC50 [12]: 2 | Ratio IC50 [13]: 2 | residual activity [5]: 3% | residual activity [6]: 2% | residual activity [7]: 12% | residual activity [8]: 12%

CNc1nccc(-c2cccnc2Oc2ccc(Nc3nc4ccc(C(F)(F)F)cc4[nH]3)c3ccccc23)n1
Ratio IC50 [10]: 2 | Ratio IC50 [11]: 1 | Ratio IC50 [12]: 3 | Ratio IC50 [13]: 5 | residual activity [5]: 6% | residual activity [6]: 3% | residual activity [7]: 2% | residual activity [8]: 5%

CN(C)CC(C)(C)CNc1nccc(-c2cccnc2Oc2ccc(Nc3nc4ccccc4[nH]3)c3ccccc23)n1
IC50 [1]: 759 nM | IC50 [2]: 1660 nM | IC50 [3]: 10000 nM | IC50 [4]: 10000 nM | IC50 [9]: 82 nM | Ratio IC50 [10]: 9 | Ratio IC50 [11]: 20 | Ratio IC50 [12]: 123 | Ratio IC50 [13]: 123 | residual activity [5]: 91% | residual activity [6]: 8% | residual activity [7]: 62% | residual activity [8]: 43%

CNc1nccc(-c2cccnc2Oc2ccc(Nc3nc4cc(C(F)(F)F)ccc4[nH]3)c3ccccc23)n1
IC50 [1]: 56 nM | IC50 [2]: 16 nM | IC50 [4]: 132 nM

CNc1nccc(-c2cccnc2Oc2ccc(Nc3nc4ccccc4[nH]3)c3ccccc23)n1
IC50 [1]: 9 nM | IC50 [4]: 292 nM | Ratio IC50 [10]: 7 | Ratio IC50 [11]: 14 | Ratio IC50 [12]: 998 | Ratio IC50 [13]: 211 | residual activity [5]: 58% | residual activity [6]: 0% | residual activity [7]: 2% | residual activity [8]: 1%

CN1CCCC1CCNc1nccc(-c2cccnc2Oc2ccc(Nc3nc4ccccc4[nH]3)c3ccccc23)n1 (stereo unspecified)
IC50 [1]: 47 nM | IC50 [2]: 327 nM | IC50 [3]: 2060 nM | IC50 [4]: 269 nM | IC50 [9]: 2 nM | Ratio IC50 [10]: 21 | Ratio IC50 [11]: 146 | Ratio IC50 [13]: 120 | residual activity [5]: 67% | residual activity [6]: 0% | residual activity [7]: 25% | residual activity [8]: 4%

CNc1nccc(-c2cccnc2Oc2ccc(Nc3nc4ccncc4[nH]3)c3ccccc23)n1
IC50 [1]: 454 nM | IC50 [2]: 1070 nM | IC50 [3]: 6360 nM | IC50 [4]: 4800 nM | IC50 [9]: 86 nM | Ratio IC50 [10]: 5 | Ratio IC50 [11]: 12 | Ratio IC50 [12]: 74 | Ratio IC50 [13]: 56 | residual activity [5]: 86% | residual activity [6]: 8% | residual activity [7]: 52% | residual activity [8]: 31%

CNc1nccc(-c2cccnc2Oc2ccc(Nc3nc4ccccc4s3)c3ccccc23)n1
IC50 [1]: 143 nM | IC50 [2]: 380 nM | IC50 [4]: 80 nM | Ratio IC50 [10]: 3 | Ratio IC50 [11]: 9 | Ratio IC50 [12]: 2 | Ratio IC50 [13]: 2 | residual activity [5]: 8% | residual activity [6]: 4% | residual activity [7]: 28% | residual activity [8]: 13%

CNc1nccc(-c2cccnc2Oc2ccc(NC(=O)NC(C)(C)C)c3ccccc23)n1
IC50 [1]: 55 nM | IC50 [2]: 225 nM | IC50 [3]: 2220 nM | IC50 [4]: 4090 nM | IC50 [9]: 215 nM | Ratio IC50 [10]: 0.1 | Ratio IC50 [11]: 1 | Ratio IC50 [12]: 10 | Ratio IC50 [13]: 19 | residual activity [5]: 69% | residual activity [6]: 18% | residual activity [7]: 18% | residual activity [8]: 5%

CNc1nccc(-c2cccnc2Oc2ccc(NC(=O)Nc3ccccc3)c3ccccc23)n1
IC50 [1]: 23 nM | IC50 [2]: 52 nM | IC50 [4]: 48 nM | Ratio IC50 [10]: 4 | Ratio IC50 [11]: 10 | Ratio IC50 [12]: 7 | Ratio IC50 [13]: 9 | residual activity [5]: 4% | residual activity [6]: 1% | residual activity [7]: 5% | residual activity [8]: 2%

Source: ChEMBL document CHEMBL1155514, “Analysis of kinase inhibitor selectivity using a thermodynamics-based partition index” (J Med Chem, 2010)
